Experimental data reported in US9062088B2, “CDK-inhibiting pyrrolopyrimidine carboxamide derivative or pharmaceutically acceptable salt thereof, and pharmaceutical composition containing the same as active ingredient for preventing or treating hepatocellular carcinoma” (SNU R&DB Foundation, priority 2010, dated 2015).
Values joined by “and” are separate entries in the source; they are usually repeats but may differ in a detail not shown here. Equal values may be shown once.

Assays:
[1] = tested on: caspase-3 activity in SNU-354 cells; assay: Measurement of caspase-3 activity (Experimental Example 4); format: cell-based, human; parameters: unit not given here
Method: SNU-354 cells treated with the compounds of Example 1˜Example 6 were lysed with lysis buffer (0.5% triton X-100, 20 mM Tris-HCl (pH 7.5), 2 mM magnesium chloride, 1 mM DTT, 1 mM EGTA, 50 mM β-glycerophosphate, 25 mM sodium fluoride, 1 mM Na3VO4, 2 μg/mL leupeptin, 2 μg/mL pepstatin A, 100 μg/mL phenylmethylsulfonyl fluoride, 1 μg/mL antipain). The protease analysis buffer necessary for the reaction (20 mM HEPES (pH 7.5), 10% glycerol, 2 mM DTT) was mixed with 20 μM Ac-DEVD-AMC (BD Biosciences, CA, USA) and cell lysates, followed by reaction at 37° C. for 1 hour. Upon completion of the reaction, caspase-3 activity was measured at 380 nm of excitation and 460 nm of emission with spectrofluorometer (TECAN, Switzerland) and the results are shown in FIG. 25 and Table 12.

[2] = tested on: SNU-354 cells; assay: Flow cytometry, sub G1 ratio change (Experimental Example 3); format: cell-based, human; details: 10 μM, 24 hours, vehicle = 1.0
Method: SNU-354 cells were seeded in a 90 mm dish, to which vehicle and the compounds of Examples 2˜6 were treated at the concentration of 10 μM each for 24 hours. The cells were collected and washed with cold PBS, followed by reaction in 500 μl of cold 70% ethanol at 4° C. for overnight to fix the cells. The cells were washed with 500 μl of PBS three times, followed by reaction with 500 μl of PBS containing 50 μg/mL propidium iodide (P1) and 50 μl of 1 mg/mL RNAse A at room temperature for 30 minutes in the darkness. Fluorescence of the P1 stained cell was measured by using FACS caliber flow cytometer and cell quest program (Becton Dickinson Immunocytometry Systems, CA, USA). Sub G1 ratio changes of SNU-354 cells induced by the compounds were measured by FACS analysis.

[3] = tested on: SNU-354 cells; assay: 3H-thymidine incorporation assay; format: cell-based, human; details: 18˜24 hours
Method: SNU-354 cells were distributed in a 6-well plate at the density of 5×10^4 cells/well, followed by culture in FBS-free medium for 24 hours. 24 hours later, the medium was replaced with the fresh one supplemented with FBS, the compounds of Examples 1 and 2 at different concentrations and 1 μCi/mL [^3H]dT (GE Healthcare, UK). 18˜24 hours later, the cells were washed with cold PBS and then fixed with cold 5% trichloroacetic acid. DNA was lysed in […] sodium hydroxide at 37° C. for 1 hour. Then, [^3H]dT incorporated during intracellular DNA synthesis was measured by LSC (liquid scintillation counting). Intracellular DNA synthesis measured above was used as index for the evaluation of cell viability.

[4] = tested on: SNU-354 cells; assay: MTT assay, cell viability; format: cell-based; details: Homo sapiens, SNU-354, read-out: Cell viability (%)
Method: Cell viability was measured by MTT assay. SNU-354 cells in the log phase of cell growth curve were distributed in a 24-well plate at the density of 2×10^4 cells/well. […] After allowing enough time for reaction, MTT reagent (MTT dissolved in PBS at the concentration of 5 mg/mL) (Sigma-Aldrich, USA) was added to each well, followed by reaction at 37° C. for 3 hours. Then, the supernatant was eliminated and the precipitated formazan crystals were dissolved in dimethyl sulfoxide, followed by measurement of absorbance with ELISA plate reader.

[5] = tested on: Cdk7; assay: Western blotting of Cdk7 activity (phospho RNA Pol II Ser 5); format: cell-based, human; details: 0 nM = 100
Method: (§1) After treating the compound of Example 2 to SNU-354 cells, cell pellet was lysed with lysis buffer (0.5% triton X-100, 20 mM Tris-HCl (pH 7.5), 2 mM magnesium chloride, 1 mM DTT, 1 mM EGTA, 50 mM β-glycerophosphate, 25 mM sodium fluoride, 1 mM Na3VO4, 2 μg/mL leupeptin, 2 μg/mL pepstatin A, 100 μg/mL phenylmethylsulfonyl fluoride, and 1 μg/mL antipain) at 4° C. for 1 hour, followed by quantification of protein. A proper amount of protein was electrophoresed on SDS-PAGE gel and then transferred onto polyvinylidene difluoride membrane (Millipore Co., Bedford, Mass.). The membrane was reacted in inhibiting solution (PBS, 5% skim milk, 0.1% tween-20) at room temperature for 1˜2 hours. The membrane was reacted with the primary antibody (goat anti-phospho-Rb, rabbit anti-nucleolin) diluted in the inhibiting solution (1:1000). Then, the membrane was washed with PBST, followed by reaction with the proper secondary antibody (horseradish peroxidase (HRP) conjugated) at room temperature for 1 hour.
(§2) Experiment was performed by the same manner as described in step 2 of Experimental Example 1 except that rabbit anti-phospho RNA Pol II (Ser 5) and rabbit anti-phospho RNA Pol II (Ser 2) (from Bethyl, TX, USA) were used as primary antibodies. The results are shown FIG. 9˜FIG. 12, and Table 4 and Table 5.

[6] = molecular target: T1, Cdk9/cyclin T1 (Homo sapiens, UniProt P50750); assay: In vitro kinase assay of Cdk9, RNA Pol II-CTD-GST substrate; format: biochemical; details: 0 nM = 100
T1 construct: purchased Upstate
T1 sequence (P50750 whole entry): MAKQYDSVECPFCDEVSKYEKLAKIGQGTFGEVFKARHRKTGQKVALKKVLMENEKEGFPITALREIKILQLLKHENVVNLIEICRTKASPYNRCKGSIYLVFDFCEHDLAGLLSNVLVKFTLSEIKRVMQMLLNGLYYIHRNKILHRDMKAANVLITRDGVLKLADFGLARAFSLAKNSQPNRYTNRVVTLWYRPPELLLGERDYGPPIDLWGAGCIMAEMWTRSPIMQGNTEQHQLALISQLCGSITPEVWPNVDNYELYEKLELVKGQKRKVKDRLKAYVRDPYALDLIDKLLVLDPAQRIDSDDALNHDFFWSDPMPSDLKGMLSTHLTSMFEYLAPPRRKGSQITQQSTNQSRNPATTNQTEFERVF
T1 sequence (O60563 whole entry partner): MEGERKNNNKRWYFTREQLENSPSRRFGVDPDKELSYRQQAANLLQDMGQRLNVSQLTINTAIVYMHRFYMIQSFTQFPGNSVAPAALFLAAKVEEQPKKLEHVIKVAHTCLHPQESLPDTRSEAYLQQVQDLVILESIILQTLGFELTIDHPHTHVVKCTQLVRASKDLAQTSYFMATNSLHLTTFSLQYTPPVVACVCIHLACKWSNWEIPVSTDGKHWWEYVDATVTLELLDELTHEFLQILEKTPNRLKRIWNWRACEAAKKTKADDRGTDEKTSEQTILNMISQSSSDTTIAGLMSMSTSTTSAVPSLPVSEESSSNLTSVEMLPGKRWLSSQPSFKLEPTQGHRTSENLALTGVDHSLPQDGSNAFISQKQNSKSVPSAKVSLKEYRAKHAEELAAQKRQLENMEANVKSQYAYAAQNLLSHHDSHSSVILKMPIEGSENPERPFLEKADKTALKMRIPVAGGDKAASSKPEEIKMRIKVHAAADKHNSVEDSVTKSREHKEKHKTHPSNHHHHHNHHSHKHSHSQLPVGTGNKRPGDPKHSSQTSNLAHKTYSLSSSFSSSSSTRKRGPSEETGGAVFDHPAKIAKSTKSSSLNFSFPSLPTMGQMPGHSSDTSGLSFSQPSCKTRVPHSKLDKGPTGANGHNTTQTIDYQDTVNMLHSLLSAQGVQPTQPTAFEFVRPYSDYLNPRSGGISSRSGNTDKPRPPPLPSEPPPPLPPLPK
Method: (§3) To kinase assay buffer were added RNA Pol II-CTD-GST protein (Jena Bioscience, Germany) as a substrate, Cdk9/cyclin T1 or Cdk7/cyclin H/MAT1 recombinant protein (Upstate) as an enzyme, 2.5 μCi [γ-32P]ATP, and 100 μM MgAc/ATP. The total reaction volume was adjusted to 50 μl. Kinase assay reaction was induced at 30° C. for 20 minutes. Upon completion of the reaction, electrophoresis was performed on 8% SDS-polyacrylamide gel. The activities of Cdk7 and Cdk9 over the concentrations of the compounds of Example 1 and Example 2 were confirmed by autoradiography and the results are shown in FIG. 5˜FIG. 8 and Table 3.
(§4) The intensity of bands was analyzed by densitometry (GS-800, Bio-Rad).

[7] = tested on: Cdk9; assay: Western blotting of Cdk9 activity (phospho RNA Pol II Ser 2); format: cell-based, human; details: 0 nM = 100
Method: as §1, §2

[8] = molecular target: T2, Cdk7/cyclin H/MAT1 (Homo sapiens, UniProt P50613); assay: In vitro kinase assay of Cdk7, RNA Pol II-CTD-GST substrate; format: biochemical; details: 0 nM = 100
T2 construct: purchased Upstate
T2 sequence (P50613 whole entry): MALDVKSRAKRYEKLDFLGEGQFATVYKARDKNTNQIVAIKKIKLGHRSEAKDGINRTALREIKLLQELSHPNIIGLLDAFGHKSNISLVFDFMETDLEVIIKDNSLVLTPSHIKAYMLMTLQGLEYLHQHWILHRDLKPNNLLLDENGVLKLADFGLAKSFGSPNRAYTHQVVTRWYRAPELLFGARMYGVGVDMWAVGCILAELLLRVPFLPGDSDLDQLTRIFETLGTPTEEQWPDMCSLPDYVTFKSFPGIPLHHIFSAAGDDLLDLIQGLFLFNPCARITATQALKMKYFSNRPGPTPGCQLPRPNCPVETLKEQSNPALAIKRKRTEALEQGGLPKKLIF
T2 sequence (P51946 whole entry partner): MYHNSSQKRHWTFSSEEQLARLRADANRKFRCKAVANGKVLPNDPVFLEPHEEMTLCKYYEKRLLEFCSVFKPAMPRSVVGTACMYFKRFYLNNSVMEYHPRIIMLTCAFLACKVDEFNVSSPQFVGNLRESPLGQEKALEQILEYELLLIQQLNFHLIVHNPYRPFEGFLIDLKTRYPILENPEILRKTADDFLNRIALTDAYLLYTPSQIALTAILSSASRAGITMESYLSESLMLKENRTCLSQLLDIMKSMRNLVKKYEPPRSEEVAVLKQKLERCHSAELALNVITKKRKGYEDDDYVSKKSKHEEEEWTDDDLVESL
T2 sequence (P51948 whole entry partner): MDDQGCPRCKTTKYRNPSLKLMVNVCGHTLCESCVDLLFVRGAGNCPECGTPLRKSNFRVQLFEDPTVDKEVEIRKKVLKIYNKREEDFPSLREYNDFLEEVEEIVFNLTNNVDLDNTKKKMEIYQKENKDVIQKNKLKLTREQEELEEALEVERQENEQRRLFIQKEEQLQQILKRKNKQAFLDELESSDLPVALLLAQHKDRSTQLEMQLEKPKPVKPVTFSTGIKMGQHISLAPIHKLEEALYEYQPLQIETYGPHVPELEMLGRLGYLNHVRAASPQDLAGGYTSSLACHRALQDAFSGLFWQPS
Method: as §3, §4

Structure (SMILES): CC(C)(C)C(=O)OC[C@@H]1O[C@H](n2cnc(N)c3c(C(N)=O)c(Br)nc2-3)[C@H](O)[C@H]1O [Example 3, ((2S,3R,4R,5S)-5-(4-amino-6-bromo-5-carbamoyl-1H-pyrrolo[2,3-d]pyrimidin-1-yl)-3,4-dihydroxy-tetrahydrofuran-2-yl)methyl pivalate]
- Caspase-3 activity ([1]; 5 μM): 8.2
- Caspase-3 activity ([1]; 10 μM): 7.8
- sub G1 ratio change [2]: 5.7

Structure (SMILES): CC(=O)O[C@H]1[C@H](OC(C)=O)[C@@H](n2cnc(N)c3c(C(N)=O)c(Br)nc2-3)O[C@H]1COC(=O)C(C)C [Example 4, (2S,3S,4R,5S)-2-(4-amino-6-bromo-5-carbamoyl-1H-pyrrolo[2,3-d]pyrimidin-1-yl)-5-(isobutyryloxymethyl)tetrahydrofuran-3,4-diyl diacetate]
- Caspase-3 activity ([1]; 5 μM): 5.1
- Caspase-3 activity ([1]; 10 μM): 7.0
- sub G1 ratio change [2]: 5.5

Structure (SMILES): NC(=O)c1c(Br)n([C@H]2O[C@@H](COC(=O)c3ccccc3)[C@@H](O)[C@@H]2O)c2ncnc(N)c12 [Example 5, ((2S,3S,4S,5S)-5-(4-amino-6-bromo-5-carbamoyl-7H-pyrrolo[2,3-d]pyrimidin-7-yl)-3,4-dihydroxytetrahydrofuran-2-yl)methyl benzoate]
- Caspase-3 activity ([1]; 5 μM): 9.0
- Caspase-3 activity ([1]; 10 μM): 10.3
- sub G1 ratio change [2]: 5.5 and 6.0

Structure (SMILES): CCC(=O)OC[C@@H]1O[C@H](n2c(Br)c(C(N)=O)c3c(N)ncnc32)[C@@H](O)[C@@H]1O [Example 6, ((2S,3S,4S,5S)-5-(4-amino-6-bromo-5-carbamoyl-7H-pyrrolo[2,3-d]pyrimidin-7-yl)-3,4-dihydroxytetrahydrofuran-2-yl)methyl propionate]
- Caspase-3 activity ([1]; 5 μM): 10.7
- Caspase-3 activity ([1]; 10 μM): 11.7
- sub G1 ratio change [2]: 5.9

Structure (SMILES): Cn1cnc2c(NCc3ccccc3)nc(NCCO)nc21 [Olomoucine, olomoucine, reference compound]
- ^3H-thymidine incorporation (%) ([3]; 5.0 μM): 99.7%
- ^3H-thymidine incorporation (%) ([3]; 10.0 μM): 96.3%
- ^3H-thymidine incorporation (%) ([3]; 50.0 μM): 77.2%
- viability at 0.5 µM [4]: 98.9%
- viability at 1 µM [4]: 99.9%
- viability at 2 µM [4]: 99.9%
- viability at 5 µM [4]: 98.5%
- viability at 10 µM [4]: 101%
- viability at 50 µM [4]: 96%

Structure (SMILES): CC[C@H](CO)Nc1nc(NCc2ccccc2)c2ncn(C(C)C)c2n1 [Roscosvitine, roscosvitine, reference compound]
- Cdk7 activity ([5]; 0.1 nM): 96.0%
- Cdk7 activity ([5]; 0.5 nM): 73.1%
- Cdk7 activity ([5]; 1 nM): 51.5%
- Cdk7 activity ([5]; 5 nM): 51.6%
- Cdk7 activity ([5]; 10 nM): 49.9%
- Cdk7 activity ([5]; 50 nM): 4.0%
- ^3H-thymidine incorporation (%) ([3]; 5.0 μM): 98.2%
- ^3H-thymidine incorporation (%) ([3]; 10.0 μM): 91.0%
- ^3H-thymidine incorporation (%) ([3]; 50.0 μM): 47.2%
- Cdk9 activity ([6]; 10 nM): 55.6%
- Cdk9 activity ([6]; 100 nM): 44.6%
- Cdk9 activity ([6]; 1000 nM): 42.2%
- Cdk9 activity ([7]; 0.1 nM): 69.3%
- Cdk9 activity ([7]; 0.5 nM): 48.5%
- Cdk9 activity ([7]; 1 nM): 38.1%
- Cdk9 activity ([7]; 5 nM): 35.7%
- Cdk9 activity ([7]; 10 nM): 34.6%
- Cdk9 activity ([7]; 50 nM): 2.2%
- Cdk7 activity ([8]; 10 nM): 92.0%
- Cdk7 activity ([8]; 100 nM): 43.4%
- Cdk7 activity ([8]; 1000 nM): 17.4%
